Source: paper PMC6580715 (Clinical Medicine Insights. Endocrinology and Diabetes, 2019)
No end group written: not given here.

Experiments:
[1] = test system: 1.1B4 beta-cells; assay: Beta-cell proliferation, Ki-67 staining, 1.1B4; format: cell-based, human; details: 1.1B4, 10^-8 and 10^-6 M, n = 3
[2] = test system: BRIN-BD11 beta-cells; assay: Beta-cell proliferation, Ki-67 staining, BRIN-BD11; format: cell-based, rodent; details: BRIN BD11, 10^-8 and 10^-6 M, n = 3
[3] = test system: BRIN-BD11 beta-cells; assay: Protection against cytokine-induced apoptosis, TUNEL, BRIN-BD11; format: cell-based, rodent; details: n = 3
[4] = test system: BRIN-BD11 beta-cells; assay: In vitro insulin secretion from BRIN-BD11 beta-cells; format: cell-based, rodent; details: peptides 10^-12-10^-6 M, 20-minute incubation, insulin radioimmunoassay, n = 8, vs 16.7 mM glucose
[5] = test system: DPP-4; assay: 50 mM triethanolamine/HCl; details: 37°C, up to 8 hours

Row | Substance | beta-cell proliferation vs control cultures [1] | beta-cell proliferation vs control cultures [2] | cytokine-induced apoptosis vs cytokine cocktail control ([3]; BRIN BD11, 10^-8 M only, cytokine cocktail) | cytokine-induced apoptosis vs cytokine cocktail control ([3]; BRIN BD11, 10^-8 and 10^-6 M, cytokine cocktail (IL-1β, IFNγ, TNFα)) | protection against apoptosis compared with PYY(1-36) ([3]; BRIN BD11, same concentration, cytokine cocktail) | insulin secretion at 16.7 mM glucose (GSIS) [4] | fragment found [5]
1 | GLP-1: GLP-1 positive control (HAEGTFTSDVSSYLEGQAAKEFIAWLVKGR; ends and bridges not checked; UniProt P01275 98-127, looked up) [reference compound] | significantly (P < .05 to P < .001) increased | significantly (P < .05 to P < .001) increased |  |  |  |  | 
2 | YPIKPEAPGEDK(PAL)SPEELNRYYASLRHYLNLVTRQRY [PYY(1-36)(Lys^12PAL)] | significantly increased (P < .05 to P < .01) the proliferation of both beta-cell lines |  | barring PYY(1-36)(Lys^12PAL) at 10^-8 M | offered some protection against apoptosis | significantly (P < .05 to P < .01) less efficacious | had no impact on GSIS | 
3 | YPIKPEAPGEDK(PAL)SPEELNRYYASLRHYLNLVTRQRY |  |  |  |  |  |  | PYY(3-36)(Lys^12PAL), 8 h
